US20240252463A1, “METHODS OF TREATING FIBROTIC PATHOLOGIES” (Mayo Foundation for Medical Education and Research, priority 2018, published 2024)
Structures can show the parent of a compound that is named as a salt. Where two headings read alike, the source gives them in different places.

How the values were obtained:
[1] = system: YAP/TAZ; assay: YAP/TAZ nuclear localization (immunofluorescence, automated imaging) in IPF patient-derived lung fibroblasts; format: cell-based, human; settings: 10 μM, treated 2 hours prior to fixation; for Nuclear localization (% of total cells) IPF-1: patient sample IPF-1; for Nuclear localization (% of total cells) IPF-2: patient sample IPF-2; for Nuclear localization (% of total cells) IPF-3: patient sample IPF-3; for Nuclear localization (% of total cells) IPF-4: patient sample IPF-4
Experimental: 27A. […] IPF patient-derived lung fibroblasts cells treated 2 hours prior to fixation with diverse dopaminergic agonists (10 μM). N=4 different patient samples. % nuclear localization of YAP/TAZ was determined using automated imaging software. Scale bar represents 100 μm. 27C. cAMP measured in IPF patient-derived fibroblasts treated for 20 minutes with DHX. N=3. 27E.
(§1) ImmunofluorescenceMicroscopy: Cells were plated into 96 well plates (Corning 3603) in their specific growth media and allowed to attach (8 hours). Media was then exchanged for the indicated conditions for each experiment. Cells were fixed in 3.7% formalin (Sigma-Aldrich), permeabilized in 0.25% Triton X-100 (Sigma-Aldrich) and then blocked with 1% BSA for 1 h. Cells or tissue sections were incubated overnight with mouse monoclonal antibody against αSMA (Sigma-Aldrich F3777), and/or a rabbit monoclonal antibody against YAP/TAZ (Cell Signaling D24E4) diluted 1:200 in PBS with 1% BSA. Cells were then washed and exposed to flourescence-conjugated secondary antibodies (Invitrogen) diluted 1:1000 and DAPI (Thermo Fisher Scientific). Images were taken with a Cytation5 (BioTek) microscope. For scoring αSMA positive cells (FIG. 3b), an observer blinded to the treatment conditions counted αSMA-positive cells using a visual threshold for bright fibrous staining; a minimum of 200 cells was counted for each condition. YAP/TAZ localization was quantified (FIG. 2, 6, 8) using Gen5 (Biotek) software. Images were taken at 4× magnification of both DAPI and YAP/TAZ staining. […] Quantification of double positive (YAP/TAZ and αSMA) cells from lung tissue sections (FIG. 4d) was performed similarly; however separate thresholds were established for both YAP/TAZ and αSMA. A minimum of 4000 cells was quantified for each mouse.

[2] = system: αSMA; assay: αSMA intensity (fibroblast activation) in IPF patient-derived lung fibroblasts + TGFβ; format: cell-based, human; settings: 1 μM + TGFβ, treated for 72 hours; for activity at 1 µM: Homo sapiens, SMA
Experimental: as §1

CCCN(CCC)CCc1ccc(O)c(O)c1 [Dipropyldopamine•HBr, Dipropyldopamine]
Nuclear localization (% of total cells) IPF-1 [1]: 69.18 % of total cells | Nuclear localization (% of total cells) IPF-2 [1]: 74.36 % of total cells | Nuclear localization (% of total cells) IPF-3 [1]: 65.5 % of total cells | Nuclear localization (% of total cells) IPF-4 [1]: 51.82 % of total cells | αSMA intensity (% of DMSO control) IPF-1 ([2]; patient sample IPF-1): 48.72 % of DMSO control | αSMA intensity (% of DMSO control) IPF-2 ([2]; patient sample IPF-2): 28.11 % of DMSO control | αSMA intensity (% of DMSO control) IPF-3 ([2]; patient sample IPF-3): 40.34 % of DMSO control | αSMA intensity (% of DMSO control) IPF-4 ([2]; patient sample IPF-4): 25.86 % of DMSO control

CCCN1CCC[C@@H]2Cc3nc(N)ncc3C[C@H]21.Cl.Cl [LY-163,502•2HCl]
Nuclear localization (% of total cells) IPF-1 [1]: 73.37 % of total cells | Nuclear localization (% of total cells) IPF-2 [1]: 60.97 % of total cells | Nuclear localization (% of total cells) IPF-3 [1]: 59.43 % of total cells | Nuclear localization (% of total cells) IPF-4 [1]: 66.49 % of total cells | αSMA intensity (% of DMSO control) IPF-1 ([2]; patient sample IPF-1): 88.99 % of DMSO control | αSMA intensity (% of DMSO control) IPF-2 ([2]; patient sample IPF-2): 72.86 % of DMSO control | αSMA intensity (% of DMSO control) IPF-3 ([2]; patient sample IPF-3): 75.3 % of DMSO control | αSMA intensity (% of DMSO control) IPF-4 ([2]; patient sample IPF-4): 86.7894 % of DMSO control

CNCCc1ccc(O)c(O)c1 [N-Methyldopamine•HCl, N-Methyldopamine]
Nuclear localization (% of total cells) IPF-1 [1]: 43.16 % of total cells | Nuclear localization (% of total cells) IPF-2 [1]: 46.73 % of total cells | Nuclear localization (% of total cells) IPF-3 [1]: 60.11 % of total cells | Nuclear localization (% of total cells) IPF-4 [1]: 70.44 % of total cells | activity at 1 µM ([2]; patient sample IPF-1, read-out: αSMA intensity (% of DMSO control) IPF-1): 43.2% | activity at 1 µM ([2]; patient sample IPF-2, read-out: αSMA intensity (% of DMSO control) IPF-2): 17.7% | activity at 1 µM ([2]; patient sample IPF-3, read-out: αSMA intensity (% of DMSO control) IPF-3): 29% | activity at 1 µM ([2]; patient sample IPF-4, read-out: αSMA intensity (% of DMSO control) IPF-4): 14.7%

Cc1cccc(C(=O)NCN2CCN(c3ccccc3C#N)CC2)c1.O=C(O)/C=C\C(=O)O [PD 168077 maleate]
Nuclear localization (% of total cells) IPF-1 [1]: 67.08 % of total cells | Nuclear localization (% of total cells) IPF-2 [1]: 42.44 % of total cells | Nuclear localization (% of total cells) IPF-3 [1]: 63.68 % of total cells | Nuclear localization (% of total cells) IPF-4 [1]: 68.4 % of total cells | αSMA intensity (% of DMSO control) IPF-1 ([2]; patient sample IPF-1): 75.27 % of DMSO control | αSMA intensity (% of DMSO control) IPF-2 ([2]; patient sample IPF-2): 56.15 % of DMSO control | αSMA intensity (% of DMSO control) IPF-3 ([2]; patient sample IPF-3): 75.77 % of DMSO control | αSMA intensity (% of DMSO control) IPF-4 ([2]; patient sample IPF-4): 66.5 % of DMSO control

Br.C=CCN1CCc2c(cc(O)c(O)c2Br)[C@@H](c2ccccc2)C1 [R(+)-6-BROMO-APB•HBr, R(+)-6-bromo-APB]
Nuclear localization (% of total cells) IPF-1 [1]: 28.37 % of total cells | Nuclear localization (% of total cells) IPF-2 [1]: 38 % of total cells | Nuclear localization (% of total cells) IPF-3 [1]: 36 % of total cells | Nuclear localization (% of total cells) IPF-4 [1]: 25.65 % of total cells | αSMA intensity (% of DMSO control) IPF-1 ([2]; patient sample IPF-1): 11.25 % of DMSO control | αSMA intensity (% of DMSO control) IPF-2 ([2]; patient sample IPF-2): 2.507 % of DMSO control | αSMA intensity (% of DMSO control) IPF-3 ([2]; patient sample IPF-3): 0.8506 % of DMSO control | αSMA intensity (% of DMSO control) IPF-4 ([2]; patient sample IPF-4): 22.82 % of DMSO control

Br.CCCN1CCc2cc(O)cc3c2[C@H]1Cc1ccc(O)c(O)c1-3 [R(−)-2,10,11-Trihydroxy-N-propyl-noraporphine]
Nuclear localization (% of total cells) IPF-1 [1]: 32.87 % of total cells | Nuclear localization (% of total cells) IPF-2 [1]: 35.25 % of total cells | Nuclear localization (% of total cells) IPF-3 [1]: 37.7 % of total cells | Nuclear localization (% of total cells) IPF-4 [1]: 25.36 % of total cells | αSMA intensity (% of DMSO control) IPF-1 ([2]; patient sample IPF-1): 4.895 % of DMSO control | αSMA intensity (% of DMSO control) IPF-2 ([2]; patient sample IPF-2): 8.436 % of DMSO control | αSMA intensity (% of DMSO control) IPF-3 ([2]; patient sample IPF-3): 2.988 % of DMSO control | αSMA intensity (% of DMSO control) IPF-4 ([2]; patient sample IPF-4): 25.61 % of DMSO control

COc1ccc2c(c1O)-c1cc(O)cc3c1[C@@H](C2)N(C)CC3.Cl [R(−)-2,11-dihydroxy-10-methoxyapomorphine]
Nuclear localization (% of total cells) IPF-1 [1]: 85.18 % of total cells | Nuclear localization (% of total cells) IPF-2 [1]: 74.67 % of total cells | Nuclear localization (% of total cells) IPF-3 [1]: 80.73 % of total cells | Nuclear localization (% of total cells) IPF-4 [1]: 80.45 % of total cells | αSMA intensity (% of DMSO control) IPF-1 ([2]; patient sample IPF-1): 91.84 % of DMSO control | αSMA intensity (% of DMSO control) IPF-2 ([2]; patient sample IPF-2): 92.8 % of DMSO control | αSMA intensity (% of DMSO control) IPF-3 ([2]; patient sample IPF-3): 81.85 % of DMSO control | αSMA intensity (% of DMSO control) IPF-4 ([2]; patient sample IPF-4): 85.61 % of DMSO control

(R)-(−)-Apomorphine [(R)-(−)-Apomorphine•HCl]
Nuclear localization (% of total cells) IPF-1 [1]: 29.21 % of total cells | Nuclear localization (% of total cells) IPF-2 [1]: 31.97 % of total cells | Nuclear localization (% of total cells) IPF-3 [1]: 27.47 % of total cells | Nuclear localization (% of total cells) IPF-4 [1]: 17.86 % of total cells | αSMA intensity (% of DMSO control) IPF-1 ([2]; patient sample IPF-1): 7.067 % of DMSO control | αSMA intensity (% of DMSO control) IPF-2 ([2]; patient sample IPF-2): 1.173 % of DMSO control | αSMA intensity (% of DMSO control) IPF-3 ([2]; patient sample IPF-3): 0.9618 % of DMSO control | αSMA intensity (% of DMSO control) IPF-4 ([2]; patient sample IPF-4): 33.67 % of DMSO control

R(−)-2,10,11-Trihydroxyaporphine [R(−)-2,10,11-Trihydroxyaporphine•HBr]
Nuclear localization (% of total cells) IPF-1 [1]: 13.71 % of total cells | Nuclear localization (% of total cells) IPF-2 [1]: 22.15 % of total cells | Nuclear localization (% of total cells) IPF-3 [1]: 24.15 % of total cells | Nuclear localization (% of total cells) IPF-4 [1]: 17.75 % of total cells | αSMA intensity (% of DMSO control) IPF-1 ([2]; patient sample IPF-1): 2.888 % of DMSO control | αSMA intensity (% of DMSO control) IPF-2 ([2]; patient sample IPF-2): 1.698 % of DMSO control | αSMA intensity (% of DMSO control) IPF-3 ([2]; patient sample IPF-3): 7.646 % of DMSO control | αSMA intensity (% of DMSO control) IPF-4 ([2]; patient sample IPF-4): 15.9942 % of DMSO control

R(−)-Propylnorapomorphine [R(−)-Propylnorapomorphine•HCl]
Nuclear localization (% of total cells) IPF-1 [1]: 28.35 % of total cells | Nuclear localization (% of total cells) IPF-2 [1]: 26.71 % of total cells | Nuclear localization (% of total cells) IPF-3 [1]: 42.74 % of total cells | Nuclear localization (% of total cells) IPF-4 [1]: 29.03 % of total cells | αSMA intensity (% of DMSO control) IPF-1 ([2]; patient sample IPF-1): 5.081 % of DMSO control | αSMA intensity (% of DMSO control) IPF-2 ([2]; patient sample IPF-2): 1.879 % of DMSO control | αSMA intensity (% of DMSO control) IPF-3 ([2]; patient sample IPF-3): 5.561 % of DMSO control | αSMA intensity (% of DMSO control) IPF-4 ([2]; patient sample IPF-4): 19.96 % of DMSO control
